Assay [1] relates to ubiquitination sites in histone-enriched fractions of 293T cells. Briefly: IBAQ-Ub site-specific stoichiometric analysis of known Ub sites on acid-extracted histones from 293T cells treated with DMSO or MG132. It counts as cell-based, human. Here is the method:
293T cells were treated with 5 μM MG132 or the equal volume of DMSO for 12 hours. Histone extraction was performed as described previously (D. Shechter, et al., Nat Protoc 2007, 2, 1445-1457). Briefly, the cells were harvested by trypsin digestion. The cell pellets were washed with cold PBS and then lysed in 0.5 mL Extraction Buffer (PBS+0.5% Triton X-100 (v/v)) with protease inhibitor cocktail. After centrifuge, the supernatant was discarded and the pellet was washed with Extraction Buffer again to remove residual supernatant solution in pellet. The pellet was re-suspended in 0.4 ml 0.4 N H2SO4 for acid extraction. After overnight incubation at 4° C., the supernatant was extracted and proteins were precipitated with a final concentration of 20% TCA (v/v), followed by cold acetone wash. The protein pellet was air dried and protein concentration was measured by the Bradford assay after solubilizing the pellet with water.
Ten μg of proteins were dried in a Speed-Vac and resuspended in 10 μL of 9 M urea/PBS with pH adjusted to ˜8.5. AcGG-NHS stock solution was prepared by dissolving AcGG-NHS in 50% ACN/50% H2O mixture at a concentration of 100 mg/mL. One μL of AcGG-NHS stock solution was added to each sample and the mixture was vortexed for 45 min. The labeling was repeated for another two times. The reaction was quenched with 5% hydroxylamine (pH=6.0, 1.5 M) for 15 min. Each sample was diluted 6× with PBS and proteins were digested with trypsin for overnight at 37° C. (enzyme-to-substrate ratio of 1:100 (w/w)). When a second digestion was needed, another protease (Glu-C or Asp-N) was added (enzyme to substrate ratio of 1:100 w/w) for overnight digestion at 37° C. Following digestion, peptides were desalted and then resuspended in 10 μL of 9M urea/PBS at a pH ˜8.5. Heavy Ac—NHS stock solution was prepared by dissolving heavy Ac—NHS in ACN at a concentration of 100 mg/mL. One μL of heavy Ac—NHS stock solution was added to each sample for 45-min labeling. The labeling was repeated for two more times and the reaction was quenched with 5% hydroxylamine (pH=6.0, 1.5 M) for 15 min. The peptides were desalted with stage tips (C18) prior to LCMS analysis (J. Rappsilber, et al., Nat Protoc 2007, 2, 1896-1906).
Mass spectrometry data were collected using an Orbitrap Fusion mass spectrometer (Thermo Scientific) with a Top-12 method. Samples were resolubilized in HPLC buffer A (0.1% formic acid in water, v/v) and injected onto a self-packed reversed-phase capillary HPLC column (15 cm×100 μm, ReproSil-Pur Basic C18, 2.5 μm, Dr. Maisch GmbH). Peptides were separated by a Proxeon Easy nLC 1000 Nano-UPLC system (Thermo Scientific) at a flow rate of 200 nL/min with a 56 min gradient of 7-32% HPLC buffer B (0.1% formic acid in acetonitrile, v/v). The Orbitrap Fusion mass spectrometer (Thermo Scientific) was operated in a positive polarity mode with ion transfer tube temp of 275° C. Precursor ions were acquired in Orbitrap with a resolution 60,000 at 200 m/z and a mass range of 380-1800 m/z. Dynamic exclusion was enabled with an exclusion duration of 15 s and a mass tolerance of ±25 ppm. Fragment ions were acquired in the linear ion trap with an isolation window of 1.6 m/z and high energy collisional dissociation (HCD) of 35%.
Mass spectra were processed with MaxQuant software (version 1.5.3.12) (J. Cox, M. Mann, Nat Biotechnol 2008, 26, 1367-1372). […]

Assay [2] concerns the target T1, bovine serum albumin (BSA) (Bos taurus, UniProt P02769).
T1 construct: purchased VWR
Briefly: Ninhydrin test with BSA standard to evaluate AcGG-NHS labeling efficiency. Here is the method:
To test the amine labeling efficiency of AcGG-NHS, three groups of samples were prepared—Blank: 100 μL of 9 M urea/1×PBS, Control: 0.1 mg BSA (5 μL of 20 mg/mL BSA) and 95 μL of 9 M urea/1×PBS, Test: 0.1 mg BSA (5 μL of 20 mg/mL BSA) and 95 μL of 9 M urea/1×PBS. First, samples in each groups were reduced with a final concentration of 5 mM TCEP and alkylated with a final concentration of 5 mM iodoacetamide at room temperature with shaking in dark for 30 min. Then, samples in the Test group were derivatized with AcGG-NHS following the procedure described below. Each group was followed by a reaction with ⅕ the volume of Ninhydrin reagent solution (0.35 g ninhydrin in 100 mL EtOH) at 85° C. with gentle stirring for 5 min. Absorbance of each sample was measured at 577 nm using NanoDrop spectrophotometer (Fisher).
Ten μg of proteins were dried in a Speed-Vac and resuspended in 10 μL of 9 M urea/PBS with pH adjusted to ˜8.5. AcGG-NHS stock solution was prepared by dissolving AcGG-NHS in 50% ACN/50% H2O mixture at a concentration of 100 mg/mL. One μL of AcGG-NHS stock solution was added to each sample and the mixture was vortexed for 45 min. The labeling was repeated for another two times. The reaction was quenched with 5% hydroxylamine (pH=6.0, 1.5 M) for 15 min. Each sample was diluted 6× with PBS and proteins were digested with trypsin for overnight at 37° C. […]

[3] abbreviates: sites quantified in both DMSO and MG132 treated samples, histone-enriched chromatin fractions of 293T cells.

We go through 2 molecules from US20200158737A1, “METHODS OF MEASURING UBIQUITIN-LIKE MODIFICATIONS” (Regents of the University of Minnesota, priority 2018, published 2020).

Residues, ends and D or L forms follow the SMILES beside them. *: point of attachment. Cbz = O=C(OCc1ccccc1)*

T1 sequence (P02769 25-607): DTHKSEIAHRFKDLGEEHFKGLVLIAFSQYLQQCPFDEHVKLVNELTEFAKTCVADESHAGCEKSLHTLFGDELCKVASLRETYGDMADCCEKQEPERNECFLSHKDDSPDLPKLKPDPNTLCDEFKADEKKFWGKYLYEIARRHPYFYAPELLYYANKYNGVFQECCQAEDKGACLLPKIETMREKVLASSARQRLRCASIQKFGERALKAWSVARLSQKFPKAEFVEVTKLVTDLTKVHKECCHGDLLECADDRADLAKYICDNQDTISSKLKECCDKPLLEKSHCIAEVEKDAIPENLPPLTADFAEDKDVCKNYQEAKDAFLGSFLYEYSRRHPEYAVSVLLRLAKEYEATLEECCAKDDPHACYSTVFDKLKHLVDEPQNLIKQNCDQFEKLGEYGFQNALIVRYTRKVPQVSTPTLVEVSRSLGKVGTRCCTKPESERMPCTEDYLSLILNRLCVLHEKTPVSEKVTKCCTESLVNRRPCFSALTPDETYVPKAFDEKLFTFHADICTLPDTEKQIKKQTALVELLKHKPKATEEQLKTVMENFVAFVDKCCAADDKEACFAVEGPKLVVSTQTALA

For the molecule `CC(C)C[C@@H](C=O)NC(=O)[C@H](CC(C)C)NC(=O)[C@H](CC(C)C)NC(=O)OCc1ccccc1` [MG132] (Cbz-Leu-Leu-Leu-aldehyde), the “abundance of histone H2B K117/K120 ubiquitination (Ub stoichiometry)” value in assay [1] (293T cells, 5 μM MG132 12 hours, acid-extracted histones, stoichiometry 0.91% without MG132) was “below the detection limit”. In assay [1] (293T cells, 5 μM MG132 12 hours, DMSO control 0.85%), the “K48 polyubiquitin linkage stoichiometry on extracted histones” value came to 2.93%. Also, the “increase of K48 ubiquitination stoichiometry versus DMSO control” value in assay [1] (293T cells, MG132 treatment, extracted histones) is “more than tripled”. For the same molecule, in assay [1] (setting [3]), the “sites with decreased ubiquitination upon treatment” value is reported as 27 % of the sites and the “sites with increased Ub abundance upon treatment” value is listed as 72 % of the sites.
Regarding `CC(=O)NCC(=O)NCC(=O)ON1C(=O)CCC1=O` [AcGG-NHS, Acetyl glycylglycine-N-hydroxysuccinamide] (HELM PEPTIDE1{[ac].G.G.[O=C1CCC(=O)N1O[*:1]]}$$$$V2.0), the “Ninhydrin reactivity on BSA after labeling” value in assay [2] (BSA after AcGG-NHS labeling, FIG. 9B-9C) is “complete loss of Ninhydrin reactivity”. Moreover, the “reactivity to derivatize amino groups” value in assay [2] (Ninhydrin test, BSA standard, absorbance at 577 nm) is given as “high reactivity”.
